Reference: article PMC6804243, “Small-Molecule Inhibition of UBE2T/FANCL-Mediated Ubiquitylation in the Fanconi Anemia Pathway” (ACS Chemical Biology, 2019)

Test system: mUb-FANCD2 (UBE2T and FANCL-dependent monoubiquitylation of FANCD2)
Assay: Immunoblot of mUb-FANCD2 formation in U2OS cells
Format: cell-based
Details: for level of mUb-FANCD2 in response to HU: CU1 200 μM or CU2 500 μM, 8 h; for level of mUb-FANCD2 in response to HU / level of mUb-FANCD2: HU 2.5 mM; for level of mUb-FANCD2: compound 100 μM, 1 h preincubation, 24 h
Experimental: U2OS cells were treated with HU and the formation of mUb-FANCD2 in the presence of CU 1, CU2, and CU9 was evaluated relative to a DMSO control. Following a 1-h preincubation with the compounds, cells were treated with 2.5 mM of HU for 24 h. […] Accordingly, cells were treated with a higher concentration of compounds in further experiments.
Figure 3 Cell-based assays with CU1 and CU2: (a) Western blot showing that the formation of mUb-FANCD2(*), in response to HU treatment (2.5 mM, 8 h), is impaired in U2OS cells in the presence of CU1 (200 μM) or CU2 (500 μM). Ratio = mUb-FANCD2/FANCD2 (normalized to DMSO control). mUb-FANCD2 was resolved on a separate gel. PARP1 was used as a loading control for each gel, as well as to assess apoptosis. (b) Quantification of the reduction in mUb-FANCD2, in response to HU treatment (2.5 mM, 8 h) in the presence of CU1 (200 μM) or CU2 (500 μM). Mean calculated from three independent experiments. (c) Western blot showing that formation of mUb-FANCD2 (denoted by an asterisk symbol, *) in response to cisplatin treatment (10 μM) for 6, 12, and 24 h is impaired in U2OS cells in the presence of CU2 (500 μM). Ratio = mUb-FANCD2/FANCD2 (normalized to DMSO control). (d) Cell cycle analyses based upon EdU incorporation in cells treated with HU (2.5 mM, 8 h) in the presence or absence of CU1 (200 μM) or CU2 (500 μM). HU treatment was used for gating purposes. […] TEXT PRINTED IN THE PICTURE: (d) DMSO: S-phase 42.7; G1 29.2; G2-M 27.8 | (d) HU: S-phase 0.24; G1 72.4; G2-M 22.9 | (d) CU1: S-phase 43.4; G1 26.8; G2-M 29.1 | (d) CU2: S-phase 39.7; G1 31.9; G2-M 28.2 DOUBTS OF THE COPYIST ABOUT THIS PICTURE: Panel d print is small, so these digits are best readings: DMSO G2-M 27.8 (8 or 6); CU1 G1 26.8 (6 or 8); CU2 S-phase 39.7 (9 or 8); CU2 G2-M 28.2 (8 or 6) / Panels a and c: the lane ratios printed under the western blots (a: 1.0, 0.64, 0.40; c: 1.0/0.65, 1.0/0.63, 1.0/0.53) were left out because they belong to blots and the picture prints no measure for them […]
Reaction mixtures were incubated for the indicated time at 37 °C and stopped by the addition of 2X reducing SDS -PAGE sample buffer, separated on NuPAGE Novex 4 –12% Bis/Tris gradient gels (Invitrogen) and visualized by Western blotting using the indicated antibodies (Table S3).
Cell culture. U2OS cells were cultured at 37 °C in a humidified atmosphere and 5% (v/v) CO2 in Dulbecco's Modified Eagle Medium (DMEM; Sigma-Aldrich) supplemented with 10% (v/v) fetal bovine serum (FBS), 100 units/ml of penicillin, […] of streptomycin and 292 μg/mL L-glutamine.
Cell extract preparation and immunoblotting. U2OS cells were lysed in buffer containing 50 mM Tris-HCl pH 7.5, 2% SDS, 10 mM NEM, cocktail protease inhibitor (Roche) and phosphatase inhibitor cocktail followed by sonication 100 µg of extracts were boiled for 5 mins at 95 °C in 5X loading buffer and loaded onto NuPAGE Novex 4–12% Bis/Tris gradient gels
(Invitrogen), or NuPAGE Novex 3-8% Tris/Acetate gradient gels (Invitrogen) for detection of mUb-FANCD2. After separation the gels were transferred to PVDF and the membranes were blocked with Tris-buffered saline containing 0.1% (v/v) Tween-20 (TBST) and 5% (v/v) bovine serum albumin (BSA) and incubated with the indicated primary and secondary antibodies. mUb-FANCD2 intensity was quantified using Image Studio (LI-COR).
IncuCyte cell proliferation assays. 2000 U2OS cells were seeded per well in 96-well plates and treated with compounds 24 hours afterwards. After 1 hour of compound treatment, 15 µM carboplatin (Sigma-Aldrich) was added and the cells were cultured in an incubator with an IncuCyte microscopy -platform (Essen BioScience). Phase -contrast images were acquired every 6 hours for 8 days until DMSO-carboplatin treated cells reached >80% confluence. Cell proliferation was monitored as the occupied area (% confluence) of cell images over time and calculated as percentage confluence over time. Cell confluency […]

Compound | level of mUb-FANCD2 in response to HU | level of mUb-FANCD2 in response to cisplatin (CU2 500 μM, cisplatin 10 μM for 6, 12 and 24 h) | level of mUb-FANCD2
CCN1CCN(c2cc(C)nc3nc(CN4CCCCC4C)nn23)CC1 (stereo not drawn) [CU2] | reduced the level of mUb-FANCD2 | reduced the level of mUb-FANCD2 | no significant decrease in the level of mUb-FANCD2
Cc1nnc(N(C)CC2CCN(CC(C)O)CC2)c(C#N)c1C (stereo not drawn) [CU9] |  |  | no significant decrease in the level of mUb-FANCD2
NCCN1C(=O)CC[C@H]2CN(Cc3cccc(-c4ccco4)c3)CC[C@H]21 [CU1] | reduced the level of mUb-FANCD2 |  | no significant decrease in the level of mUb-FANCD2
